Experimental data from patent US10500217B2 (LESLIE RAY MATTHEWS, M.D., LLC, priority 2018, dated 2019).

Tested on: Glial cells (DBTRG-05MG; CRL-2020)
Test: Lactate dehydrogenase (LDH) cell death assay: percentage cell survival of glia cells with or without H2O2 exposure
Type: cell-based, human
Details: for Percentage Cell Survival (% ± SD), H202 Given Last (30 min before H202 given/pre-treatment) / Percentage Cell Survival (% ± SD), H202 (added 30 min after): H2O2 0.25M about 30 min after treatment; for Percentage Cell Survival (% ± SD), H202 Given 1st (30 min after H202 Given, mimics acute injury) / Percentage Cell Survival (% ± SD), H202 (added 30 min before): H2O2 0.25M about 30 min before treatment; for Percentage Cell Survival (% ± SD), Control: control (PBS) instead of H2O2; for Percentage Cell Survival (% ± SD), H202 given (30 min after treatment with Vitamin D) / Percentage Cell Survival (% ± SD), H202 Given (30 min before treatment with Vitamin D) / Percentage Cell Survival (% ± SD), Control (PBS): Table 3; for Percentage Cell Survival (% ± SD), H202 given (30 min after treatment with Vitamin D): H2O2 0.25M 30 min after treatment; for Percentage Cell Survival (% ± SD), H202 Given (30 min before treatment with Vitamin D): H2O2 0.25M 30 min before treatment; for Percentage Cell Survival (% ± SD), Control (PBS): no H2O2
Method: Glial cells were purchased from ATCC (DBTRG-05MG; CRL-2020) and were derived from the brain of a […] with glioblastoma. […] Glial cells were subcultured at a ratio of about 1:4 every 2 to 3 days. Cell death was measured by the CytoTox 96 Non-Radioactive Cytotoxicity Assay according to the manufacturer's instructions (Promega, Madison, Wis.). Culture medium (500 μl) was recovered from and incubated for about 30 min in the dark with a buffer containing NAD+, lactate, and tetrazolium. Lactate Dehydrogenase (LDH) converts lactate to pyruvate, generating NADH which reduces tetrazolium (yellow) to formazan (red), which is detected by […] (490 nm). LDH release, a marker for cell death, was expressed as a percentage of the LDH in the medium over the total LDH. Data was analyzed using a two-tailed t-test after applying ANOVA to the data. Differences were considered significant when p<0.01. Glia cells (10^6 cells) were plated in triplicates in 6-well plates. […] Percentage cell survival was calculated about 24 hours later using LDH assay. […] Glia cells (10^6 cells) were plated in triplicates in 6-well plates. […] Percentage cell survival was calculated about 24 hours later using LDH assay. […] Glia cells (10^6 cells) were plated in triplicates in 6-well plates. […] Percentage cell survival was calculated about 24 hours later using LDH assay.

[1] = Table 1, survival about 24 h later, 3 experiments
[2] = Table 2, Vitamin D3 (1/5), Hsp72 (1/5), Glutathione 200 mg/ml, 24 h, 4 experiments

Compound | Percentage Cell Survival (% ± SD), H202 Given Last (30 min before H202 given/pre-treatment) [1] | Percentage Cell Survival (% ± SD), H202 Given 1st (30 min after H202 Given, mimics acute injury) [1] | Percentage Cell Survival (% ± SD), Control [1] | Percentage Cell Survival (% ± SD), H202 (added 30 min after) [2] | Percentage Cell Survival (% ± SD), H202 (added 30 min before) [2] | Percentage Cell Survival (% ± SD), Control [2] | Percentage Cell Survival (% ± SD), H202 given (30 min after treatment with Vitamin D) (Vitamin D3 5 ng/m1, 24 h) | Percentage Cell Survival (% ± SD), H202 Given (30 min before treatment with Vitamin D) (Vitamin D3 5 ng/m1, 24 h) | Percentage Cell Survival (% ± SD), Control (PBS) (Vitamin D3 5 ng/m1, 24 h) | Percentage Cell Survival (% ± SD), H202 given (30 min after treatment with Vitamin D) (Vitamin D3 25 ng/m1, 24 h) | Percentage Cell Survival (% ± SD), H202 Given (30 min before treatment with Vitamin D) (Vitamin D3 25 ng/m1, 24 h) | Percentage Cell Survival (% ± SD), Control (PBS) (Vitamin D3 25 ng/m1, 24 h) | Percentage Cell Survival (% ± SD), H202 given (30 min after treatment with Vitamin D) (Vitamin D3 50 ng/m1, 24 h) | Percentage Cell Survival (% ± SD), H202 Given (30 min before treatment with Vitamin D) (Vitamin D3 50 ng/m1, 24 h) | Percentage Cell Survival (% ± SD), Control (PBS) (Vitamin D3 50 ng/m1, 24 h) | Percentage Cell Survival (% ± SD), H202 Given (30 min before treatment with Vitamin D) (Vitamin D3 75 ng/m1, 24 h) | Percentage Cell Survival (% ± SD), Control (PBS) (Vitamin D3 75 ng/m1, 24 h) | Percentage Cell Survival (% ± SD), H202 given (30 min after treatment with Vitamin D) (Vitamin D3 100 ng/m1, 24 h) | Percentage Cell Survival (% ± SD), H202 Given (30 min before treatment with Vitamin D) (Vitamin D3 100 ng/m1, 24 h) | Percentage Cell Survival (% ± SD), Control (PBS) (Vitamin D3 100 ng/m1, 24 h)
Hsp72: Endotoxin-free recombinant Hsp72 produced using the baculovirus expression vector system and expressed in insect cells | 48.54 ± 6.3 % | 31.85 ± 9.2 % | 96.88 ± 3.8% | 32.68 ± 7.5 % | 21.57 ± 5.4 % | 95.48 ± 5.1% | – | – | – | – | – | – | – | – | – | – | – | – | – | –
C=C1CC[C@H](O)C/C1=C/C=C1\CCC[C@]2(C)[C@@H]([C@H](C)CCCC(C)C)CC[C@@H]12 [Vitamin D3, Cholecalciferol] | 28.56 ± 8.9 % | 15.27 ± 7.4 % | 94.64 ± 4.6% | 12.68 ± 3.5 % | 10.36 ± 2.3 % | 97.28 ± 4.3% | 9.75 ± 3.6% | 6.22 ± 2.8% | 96.89 ± 4.5% | 13.09 ± 2.9 % | 10.18 ± 2.2 % | 98.56 ± 7.9% | 28.56 ± 3.9 % | 15.27 ± 4.4 % | 91.18 ± 6.8% | 22.94 ± 3.8 % | 95.82 ± 6.2% | 60.11 ± 7.2 % | 28.99 ± 6.9 % | 97.41 ± 8.4%
